Data reported in patent US11033547B2, “Carboxamide-pyrimidine derivatives as SHP2 antagonists” (Merck Patent GmbH, priority 2019, dated 2021).
Read-outs that look alike come from different tables or passages of the source.

Columns and labels:
[1] = tested on: pERK level in KYSE520 cells; assay: p-Erk cellular assay in KYSE520 (Mesoscale); assay type: cell-based; details: 2 h incubation, read-out: pERK1/2 in KYSE520 IC50
Experimental: (§1) p-Erk Cellular Assay in MDA-MB-468 and KYSE520:
(§2) The effect of SHP2 inhibitors on pERK level was assessed using phospho-specific antibody using Mesoscale quantification platform. For measuring change in pERK levels using mesoscale, 30,000 cells of MDA MB468 and KYSE520 cells were plated in 96-well tissue culture treated plate in 175 ul volume of media. After an overnight incubation at 37° C., various SHP2 inhibitors were added in different concentration to each well maintaining duplicate wells across plates and incubated with compounds for 2 h at 37° C. followed by a wash with ice cold PBS buffer. The cells were then lysed in lysis buffer and processed and analyzed for p-ERK/ERK as per manufacturer's instructions (Mesoscale discovery, cat No. K15107D-3).

[2] = tested on: pERK level in MDA-MB-468 cells; assay: p-Erk cellular assay in MDA-MB-468 (Mesoscale); assay type: cell-based; details: 2 h incubation, read-out: pERK1/2 in MDA-MB-468 IC50
Experimental: as §1, §2

[3] = target: Full length SHP2 protein (Recombinant Human SHP-2) (Homo sapiens, UniProt Q06124); assay: SHP2 biochemical assay (DiFMUP substrate, activating peptide IRSI_2pY); details: DiFMUP substrate, activating peptide IRSI_2pY, 60 min at RT; read-out: SHP-2 Biochemical assay IC50
Experimental: The inhibition of SHP2 by compounds of the invention was monitored using the surrogate substrate DiFMUP after protein activation by a peptide bearing two appropriately spaced phosphotyrosine. […] The generation of the DiFMU product by activated SHP2 was monitored through Fluorescence measurement with a PerkinElmer Envision reader.
The inhibitor dose response curves were analyzed with Genedata Screener.

Full length SHP2 protein (Recombinant Human SHP-2), sequence (Q06124 2-593 limits assumed): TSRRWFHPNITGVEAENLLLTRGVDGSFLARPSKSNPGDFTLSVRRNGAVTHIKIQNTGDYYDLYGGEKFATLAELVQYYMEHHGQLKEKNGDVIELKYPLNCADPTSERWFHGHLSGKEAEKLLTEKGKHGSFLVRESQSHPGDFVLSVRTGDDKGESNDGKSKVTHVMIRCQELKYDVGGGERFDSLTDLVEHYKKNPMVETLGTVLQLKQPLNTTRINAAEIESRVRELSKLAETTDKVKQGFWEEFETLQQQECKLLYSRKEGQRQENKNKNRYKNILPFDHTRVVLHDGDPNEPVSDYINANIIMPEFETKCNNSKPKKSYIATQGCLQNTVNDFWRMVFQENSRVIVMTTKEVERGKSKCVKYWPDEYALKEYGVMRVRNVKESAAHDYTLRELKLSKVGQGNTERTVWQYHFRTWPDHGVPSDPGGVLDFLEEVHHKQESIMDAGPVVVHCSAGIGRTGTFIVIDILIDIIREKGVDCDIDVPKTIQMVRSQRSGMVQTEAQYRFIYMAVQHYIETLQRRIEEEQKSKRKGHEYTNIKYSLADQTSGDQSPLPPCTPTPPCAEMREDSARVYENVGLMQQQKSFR

CC1(N)CCN(c2nc(N)c(-c3cccc(Cl)c3Cl)c(C(N)=O)n2)CC1 (atropisomer, axis not shown; (M)) [Compound 26, (4M)-6-Amino-2-(4-amino-4-methyl-piperidin-1-yl)-5-(2,3-dichloro-phenyl)-pyrimidine-4-carboxylic acid amide]
IC50 [1]: > 10000 nM
IC50 [2]: 8190 nM
IC50 [3]: > 10000 nM

Cc1nc(N2CCC(C)(N)CC2)nc(C(N)=O)c1-c1cccc(Cl)c1Cl (atropisomer, axis not shown; (M)) [Compound 30, (4M)-2-(4-amino-4-methylpiperidin-1-yl)-5-(2,3-dichlorophenyl)-6-methylpyrimidine-4-carboxamide]
IC50 [2]: 475 nM
IC50 [3]: 110 nM

CC1(N)CCN(c2nc(Cl)c(-c3cccc(Cl)c3Cl)c(C(N)=O)n2)CC1 (atropisomer, axis not shown; (P)) [Compound 79, (4P)-2-(4-amino-4-methylpiperidin-1-yl)-6-chloro-5-(2,3-dichlorophenyl)-pyrimidine-4-carboxamide]
IC50 [1]: 837 nM
IC50 [2]: 177 nM
IC50 [3]: 30 nM

NC[C@@]12CCC[C@@H]1CN(c1nc(N)c(-c3cccc(Cl)c3Cl)c(C(N)=O)n1)C2 (atropisomer, axis not shown; (P)) [Compound 98, (5P)-2-[(3aR,6aS)-3a-(aminomethyl)octahydrocyclopenta[c]pyrrol-2-yl]-6-amino-5-(2,3-dichlorophenyl)pyrimidine-4-carboxamide]
IC50 ([1]; Homo sapiens, KYSE-520, 2 h): 1200 nM
IC50 ([2]; Homo sapiens, MDA-MB-468, 2 h): 395 nM
IC50 [3]: 49 nM

C[C@@]1(N)CCCN(c2nc(N)c(-c3cccc(Cl)c3Cl)c(C(N)=O)n2)CC1 (atropisomer, axis not shown; (P)) [Compound 109, (5P)-6-amino-2-[(4R)-4-amino-4-methylazepan-1-yl]-5-(2,3-dichlorophenyl)-pyrimidine-4-carboxamide]
IC50 ([1]; Homo sapiens, KYSE-520, 2 h): 468 nM
IC50 ([2]; Homo sapiens, MDA-MB-468, 2 h): 420 nM
IC50 [3]: 71 nM

C[C@@H]1OCC2(CCN(c3nc(N)c(-c4cccc(Cl)c4Cl)c(C(N)=O)n3)CC2)[C@@H]1N (single isomer, unassigned) [Compound 66]
IC50 ([1]; Homo sapiens, KYSE-520, 2 h): 863 nM
IC50 ([2]; Homo sapiens, MDA-MB-468, 2 h): 503 nM

NC[C@]12CCCC[C@H]1CN(c1nc(N)c(-c3cccc(Cl)c3Cl)c(C(N)=O)n1)C2 (single isomer, unassigned) [Compound 101]
IC50 ([1]; Homo sapiens, KYSE-520, 2 h): 390 nM
IC50 ([2]; Homo sapiens, MDA-MB-468, 2 h): 445 nM
IC50 [3]: 75 nM

Cc1nc(N2CCC3(CCC[C@H]3N)CC2)nc(C(N)=O)c1-c1cccc(Cl)c1Cl (single isomer, unassigned) [Compound 114]
IC50 ([1]; Homo sapiens, KYSE-520, 2 h): 284 nM
IC50 ([2]; Homo sapiens, MDA-MB-468, 2 h): 316 nM
IC50 [3]: 45 nM

CC1(N)CCN(c2ncc(-c3cccc(Cl)c3Cl)c(C(N)=O)n2)CC1 [Compound 1, 2-(4-amino-4-methylpiperidin-1-yl)-5-(2,3-dichlorophenyl)pyrimidine-4-carboxamide]
IC50 ([2]; Homo sapiens, MDA-MB-468, 2 h): 12000 nM

CC1(N)CCN(c2nc(N)c(-c3cccc(Cl)c3)c(C(N)=O)n2)CC1 [Compound 2, 6-Amino-2-(4-amino-4-methyl-piperidin-1-yl)-5-(3-chlorophenyl)-pyrimidine-4-carboxylic Acid Amide]
IC50 ([2]; Homo sapiens, MDA-MB-468, 2 h): 3080 nM
IC50 [3]: 2100 nM

NC(=O)c1nc(N2CCC3(CCC[C@H]3N)CC2)nc(N)c1-c1cccc(Cl)c1Cl [Compound 7, 6-amino-2-[(1R)-1-amino-8-azaspiro[4.5]decan-8-yl]-5-(2,3-dichlorophenyl)pyrimidine-4-carboxamide]
IC50 ([1]; Homo sapiens, KYSE-520, 2 h): 1370 nM
IC50 ([2]; Homo sapiens, MDA-MB-468, 2 h): 606 nM
IC50 [3]: 120 nM

NC(=O)c1nc(N2CCC3(CC2)CC(F)(F)C[C@H]3N)nc(N)c1-c1cccc(Cl)c1Cl [Compound 8, 6-amino-2-[(1R)-1-amino-3,3-difluoro-8-azaspiro[4.5]decan-8-yl]-5-(2,3-dichlorophenyl)pyrimidine-4-carboxamide]
IC50 ([1]; Homo sapiens, KYSE-520, 2 h): 1510 nM
IC50 ([2]; Homo sapiens, MDA-MB-468, 2 h): 2180 nM
IC50 [3]: 200 nM

CC1(N)CCN(c2nc(Cl)c(-c3cccc(Cl)c3Cl)c(C(N)=O)n2)CC1 [Compound 16, 2-(4-Amino-4-methyl-piperidin-1-yl)-6-chloro-5-(2,3-dichlorophenyl)-pyrimidine-4-carboxylic Acid Amide]
IC50 ([1]; Homo sapiens, KYSE-520, 2 h): 1140 nM
IC50 [2]: 516 nM
